Measurements from PubChem BioAssay AID1919004 (Molecular Pharmacology Branch, DTP, NCI, 2023).
Values joined by “and” are separate entries in the source; they are usually repeats but may differ in a detail not shown here. Equal entries are not always repeated.

System: 883617-216-R-J1-PDC complex spheroids, growth, % test/control
Assay: Anticancer human tumor 883617-216-R-J1-PDC patient-derived bladder carcinoma cell line growth inhibition [AhR]
Conditions: for viability, T/C: stronger effect = lower value
How it was run: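 Agents were dosed in half-log steps down from roughly clinical Cmax, or from 10 microM where Cmax was unknown, alone and with AhR antagonists. Read-out: percent test/control growth of tumor spheroids containing HUVEC and MSC stromal cells.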

[1] = curve of first compound, second compound 0.1 µM
[2] = curve of first compound, second compound 0.316 µM
[3] = curve of first compound, second compound 1 µM
[4] = curve of first compound, second compound 3.16 µM
[5] = curve of first compound, second compound 10 µM
[6] = second compound 0.1 µM, first compound 0.0316 µM
[7] = second compound 0.1 µM, first compound 0.1 µM
[8] = second compound 0.1 µM, first compound 0.316 µM
[9] = second compound 0.1 µM, first compound 1 µM
[10] = second compound 0.316 µM, first compound 0.0316 µM
[11] = second compound 0.316 µM, first compound 0.1 µM
[12] = second compound 0.316 µM, first compound 0.316 µM
[13] = second compound 0.316 µM, first compound 1 µM
[14] = second compound 1 µM, first compound 0.0316 µM
[15] = second compound 1 µM, first compound 0.1 µM
[16] = second compound 1 µM, first compound 0.316 µM
[17] = second compound 1 µM, first compound 1 µM
[18] = second compound 3.16 µM, first compound 0.0316 µM
[19] = second compound 3.16 µM, first compound 0.1 µM
[20] = second compound 3.16 µM, first compound 0.316 µM
[21] = second compound 3.16 µM, first compound 1 µM
[22] = second compound 10 µM, first compound 0.0316 µM
[23] = second compound 10 µM, first compound 0.1 µM
[24] = second compound 10 µM, first compound 0.316 µM
[25] = second compound 10 µM, first compound 1 µM
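Note: exposure lasted 7 days after dosing on day 3 of spheroid growth.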

Nc1ncn(C2CC(O)C(CO)O2)c(=O)n1 (configuration not stated)
viability, T/C (compound 0.00316 µM): 88.2% and 94.6% and 84.1% | viability, T/C (compound 0.01 µM): 93.2% and 102% and 118% | viability, T/C (compound 0.0316 µM): 94.7% and 90.6% and 73.1% | viability, T/C (compound 0.1 µM): 89.7% and 97% and 93.9% | viability, T/C (compound 0.316 µM): 85.9% and 82.2% and 113% | viability, T/C (compound 1 µM): 76.2% and 75.2% and 94.4% | IC50 (curve of compound): > 1000 nM

Nc1ncn(C2CC(O)C(CO)O2)c(=O)n1 (configuration not stated) + Cc1cncc(-c2nc(NCCc3c[nH]c4ccccc34)c3ncn(C(C)C)c3n2)c1
IC50 [1]: > 1000 nM | IC50 [2]: > 1000 nM | IC50 [3]: > 1000 nM | IC50 [4]: > 1000 nM | IC50 [5]: < 3.16 nM | viability, T/C (second compound 0.1 µM, first compound 0.00316 µM): 81.2% | viability, T/C (second compound 0.1 µM, first compound 0.01 µM): 76.9% | viability, T/C [6]: 76.2% | viability, T/C [7]: 73.1% | viability, T/C [8]: 77.9% | viability, T/C [9]: 67.7% | viability, T/C (second compound 0.316 µM, first compound 0.00316 µM): 92.2% | viability, T/C (second compound 0.316 µM, first compound 0.01 µM): 89.5% | viability, T/C [10]: 84.5% | viability, T/C [11]: 74.1% | viability, T/C [12]: 71.3% | viability, T/C [13]: 79.6% | viability, T/C (second compound 1 µM, first compound 0.00316 µM): 92.1% | viability, T/C (second compound 1 µM, first compound 0.01 µM): 89.8% | viability, T/C [14]: 84.8% | viability, T/C [15]: 77.2% | viability, T/C [16]: 86.1% | viability, T/C [17]: 78.7% | viability, T/C (second compound 3.16 µM, first compound 0.00316 µM): 97.2% | viability, T/C (second compound 3.16 µM, first compound 0.01 µM): 87.5% | viability, T/C [18]: 104% | viability, T/C [19]: 99.8% | viability, T/C [20]: 103% | viability, T/C [21]: 84.2% | viability, T/C (second compound 10 µM, first compound 0.00316 µM): 43.5% | viability, T/C (second compound 10 µM, first compound 0.01 µM): 42.6% | viability, T/C [22]: 45.2% | viability, T/C [23]: 47.7% | viability, T/C [24]: 51.2% | viability, T/C [25]: 55%

O=C(c1cc(Cc2n[nH]c(=O)c3ccccc23)ccc1F)N1CCN(C(=O)C2CC2)CC1 + CC(CO)NC(=O)c1cc(-c2ccc(Cl)cc2)nn(-c2cnn(C)c2)c1=O
IC50 [1]: > 10000 nM | IC50 [2]: > 10000 nM | IC50 [3]: > 10000 nM | IC50 [4]: > 10000 nM | IC50 [5]: > 10000 nM | viability, T/C [6]: 107% | viability, T/C [7]: 109% | viability, T/C [8]: 78.8% | viability, T/C [9]: 124% | viability, T/C (second compound 0.1 µM, first compound 3.16 µM): 118% | viability, T/C (second compound 0.1 µM, first compound 10 µM): 80.2% | viability, T/C [10]: 80% | viability, T/C [11]: 114% | viability, T/C [12]: 115% | viability, T/C [13]: 92.3% | viability, T/C (second compound 0.316 µM, first compound 3.16 µM): 72.4% | viability, T/C (second compound 0.316 µM, first compound 10 µM): 87.1% | viability, T/C [14]: 122% | viability, T/C [15]: 124% | viability, T/C [16]: 111% | viability, T/C [17]: 104% | viability, T/C (second compound 1 µM, first compound 3.16 µM): 137% | viability, T/C (second compound 1 µM, first compound 10 µM): 97% | viability, T/C [18]: 120% | viability, T/C [19]: 88.5% | viability, T/C [20]: 85.5% | viability, T/C [21]: 105% | viability, T/C (second compound 3.16 µM, first compound 3.16 µM): 119% | viability, T/C (second compound 3.16 µM, first compound 10 µM): 82.3% | viability, T/C [22]: 126% | viability, T/C [23]: 84.7% | viability, T/C [24]: 128% | viability, T/C [25]: 98.9% | viability, T/C (second compound 10 µM, first compound 3.16 µM): 64.2% | viability, T/C (second compound 10 µM, first compound 10 µM): 104%
